Reference: US10246453B2, “Benzenesulfonamide compounds and their use as therapeutic agents” (Xenon Pharmaceuticals Inc., priority 2016, dated 2019)
Where a name gives a salt, the structure may show the parent alone. Read-outs that look alike come from different tables or passages of the source.

Assays:
NaV1.6 = NaV1.6 (Homo sapiens (Human), UniProt Q9UQD0); test: Sodium Influx Assay (Flux), NaV1.6
NaV1.1 = NaV1.1 (Homo sapiens (Human), UniProt P35498); test: Sodium Influx Assay (Flux), NaV1.1; assay type: cell-based; details: Trex HEK293 cells, ANG2 dye; arithmetic mean
NaV1.5 = NaV1.5 (Homo sapiens (Human), UniProt Q14524); test: Sodium Influx Assay (Flux), NaV1.5; details: read-out: Flux NaV1.5 IC50; Trex HEK293 cells, ANG2 dye; arithmetic mean
Sequence of NaV1.5 (Q14524 other isoform, or with tags, fused parts or gaps): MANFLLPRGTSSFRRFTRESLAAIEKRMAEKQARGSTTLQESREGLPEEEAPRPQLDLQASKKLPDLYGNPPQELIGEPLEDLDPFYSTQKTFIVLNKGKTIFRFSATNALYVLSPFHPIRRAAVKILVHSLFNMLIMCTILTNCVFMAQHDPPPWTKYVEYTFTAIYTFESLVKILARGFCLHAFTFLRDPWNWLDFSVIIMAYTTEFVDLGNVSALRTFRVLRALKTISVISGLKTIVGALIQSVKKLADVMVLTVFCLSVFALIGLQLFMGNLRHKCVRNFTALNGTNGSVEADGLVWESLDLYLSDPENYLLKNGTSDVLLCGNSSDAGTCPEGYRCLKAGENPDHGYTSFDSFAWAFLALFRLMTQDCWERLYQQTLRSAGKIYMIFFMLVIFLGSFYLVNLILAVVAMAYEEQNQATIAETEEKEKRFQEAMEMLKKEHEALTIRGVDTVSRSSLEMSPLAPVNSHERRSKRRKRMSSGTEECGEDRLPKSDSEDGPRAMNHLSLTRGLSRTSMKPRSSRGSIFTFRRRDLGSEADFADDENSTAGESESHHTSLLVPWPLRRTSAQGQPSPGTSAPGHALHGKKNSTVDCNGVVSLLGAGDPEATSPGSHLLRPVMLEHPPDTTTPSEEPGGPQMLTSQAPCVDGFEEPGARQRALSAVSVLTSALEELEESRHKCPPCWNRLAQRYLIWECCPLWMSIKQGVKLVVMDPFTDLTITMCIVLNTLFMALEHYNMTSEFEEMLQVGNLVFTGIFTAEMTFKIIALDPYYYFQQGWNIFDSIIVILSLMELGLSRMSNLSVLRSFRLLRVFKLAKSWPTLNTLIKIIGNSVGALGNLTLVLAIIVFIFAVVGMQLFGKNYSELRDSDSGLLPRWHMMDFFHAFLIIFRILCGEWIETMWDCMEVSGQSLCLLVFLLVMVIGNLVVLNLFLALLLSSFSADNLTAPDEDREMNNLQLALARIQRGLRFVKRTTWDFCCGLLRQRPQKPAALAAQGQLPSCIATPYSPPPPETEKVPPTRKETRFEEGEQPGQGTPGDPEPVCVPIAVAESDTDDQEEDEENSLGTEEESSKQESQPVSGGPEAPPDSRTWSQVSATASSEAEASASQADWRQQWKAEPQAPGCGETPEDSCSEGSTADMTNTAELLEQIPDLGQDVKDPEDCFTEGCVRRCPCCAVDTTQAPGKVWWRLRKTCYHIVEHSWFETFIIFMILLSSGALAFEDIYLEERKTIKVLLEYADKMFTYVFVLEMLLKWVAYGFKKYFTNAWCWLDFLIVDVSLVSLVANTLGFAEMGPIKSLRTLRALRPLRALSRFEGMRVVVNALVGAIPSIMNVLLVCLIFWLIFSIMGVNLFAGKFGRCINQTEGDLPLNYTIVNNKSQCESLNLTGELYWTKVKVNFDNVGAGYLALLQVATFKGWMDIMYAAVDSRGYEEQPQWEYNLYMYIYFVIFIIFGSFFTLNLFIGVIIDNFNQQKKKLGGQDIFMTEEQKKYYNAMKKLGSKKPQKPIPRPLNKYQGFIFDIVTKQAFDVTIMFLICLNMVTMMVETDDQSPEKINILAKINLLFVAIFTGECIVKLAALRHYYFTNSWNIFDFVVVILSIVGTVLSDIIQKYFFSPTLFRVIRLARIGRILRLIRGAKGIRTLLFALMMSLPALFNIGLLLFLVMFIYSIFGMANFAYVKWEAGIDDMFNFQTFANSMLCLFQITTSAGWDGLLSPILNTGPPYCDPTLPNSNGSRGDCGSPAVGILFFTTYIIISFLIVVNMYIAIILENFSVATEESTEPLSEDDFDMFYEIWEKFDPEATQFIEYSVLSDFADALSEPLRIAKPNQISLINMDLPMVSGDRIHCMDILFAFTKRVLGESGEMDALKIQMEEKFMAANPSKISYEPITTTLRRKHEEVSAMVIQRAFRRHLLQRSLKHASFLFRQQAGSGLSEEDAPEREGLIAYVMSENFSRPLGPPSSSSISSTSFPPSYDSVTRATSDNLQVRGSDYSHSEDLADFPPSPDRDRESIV

[1] = read-out: Flux NaV1.6 IC50, Trex HEK293 cells, ANG2 dye, arithmetic mean

| Compound | IC50 (NaV1.6) [µM] | IC50 (NaV1.1) [µM] | IC50 (NaV1.6; [1]) [µM] | IC50 (NaV1.5) [µM] |
| --- | --- | --- | --- | --- |
| C[C@@H]1CN(Cc2ccccc2F)CC[C@@H]1Oc1ccc(S(=O)(=O)Nc2nccs2)cc1Cl (relative stereo) [Example 10A, 3-chloro-4-((cis-1-(2-fluorobenzyl)-3-methylpiperidin-4-yl)oxy)-N-(thiazol-2-yl)benzenesulfonamide] | 1.27 | – | – | – |
| C[C@@H]1CN(Cc2ccccc2F)CC[C@H]1Oc1ccc(S(=O)(=O)Nc2nccs2)cc1Cl (relative stereo) [Example 10B, 3-chloro-4-((trans-1-(2-fluorobenzyl)-3-methylpiperidin-4-yl)oxy)-N-(thiazol-2-yl)benzenesulfonamide] | 1.16 | – | – | – |
| C[C@H]1C[C@@H](Oc2ccc(S(=O)(=O)Nc3nccs3)cc2Cl)CCN1Cc1ccccc1 (relative stereo) [Example 72, 4-((cis-1-benzyl-2-methylpiperidin-4-yl)oxy)-3-chloro-N-(thiazol-2-yl)benzenesulfonamide] | – | 6.81 | 6.07 | 13.5 |
| C[C@@H]1C[C@@H](Oc2ccc(S(=O)(=O)Nc3nccs3)cc2Cl)CCN1Cc1ccccc1 (relative stereo) [Example 73, 4-((trans-1-benzyl-2-methylpiperidin-4-yl)oxy)-3-chloro-N-(thiazol-2-yl)benzenesulfonamide] | – | 5.85 | 1.88 | 13.1 |
| C[C@@H]1CN(Cc2ccccc2)C[C@@H]1Nc1ccc(S(=O)(=O)Nc2nccs2)cc1Cl (relative stereo) [Example 75, 4-((cis-1-benzyl-4-methylpyrrolidin-3-yl)amino)-3-chloro-N-(thiazol-2-yl)benzenesulfonamide] | – | 4.19 | 0.661 | 8.99 |
| CC1(C)CNCCC1Oc1ccc(S(=O)(=O)Nc2ncns2)cc1Cl (centres unmarked) [Example 1, 3-chloro-4-((3,3-dimethylpiperidin-4-yl)oxy)-N-(1,2,4-thiadiazol-5-yl)benzenesulfonamide 2,2,2-trifluoroacetate] | – | > 30 | 10.3 | > 30 |
| Cc1cc(C)cc(CN2CCC(Oc3ccc(S(=O)(=O)Nc4ncns4)cc3Cl)C(C)(C)C2)c1 (centres unmarked) [Example 3, 3-chloro-4-((1-(3,5-dimethylbenzyl)-3,3-dimethylpiperidin-4-yl)oxy)-N-(1,2,4-thiadiazol-5-yl)benzenesulfonamide 2,2,2-trifluoroacetate] | – | 20.8 | 6.59 | 6.17 |
| CC1(C)CN(Cc2cc(Cl)cc(Cl)c2)CCC1Oc1ccc(S(=O)(=O)Nc2ncns2)cc1Cl (centres unmarked) [Example 4, 3-chloro-4-((1-(3,5-dichlorobenzyl)-3,3-dimethylpiperidin-4-yl)oxy)-N-(1,2,4-thiadiazol-5-yl)benzenesulfonamide 2,2,2-trifluoroacetate] | – | > 30 | > 30 | 11 |
| O=S(=O)(Nc1nccs1)c1ccc(OC2CCN(Cc3cccc(OC(F)F)c3)CC2)c(Cl)c1 [Example 5, 3-chloro-4-((1-(3-(difluoromethoxy)benzyl)piperidin-4-yl)oxy)-N-(thiazol-2-yl)benzenesulfonamide] | – | 6.3 | 1.36 | 4.37 |
| O=S(=O)(Nc1nccs1)c1ccc(OC2CCN(CC3CCCCC3)CC2)c(Cl)c1 [Example 6, 3-chloro-4-((1-(cyclohexylmethyl)piperidin-4-yl)oxy)-N-(thiazol-2-yl)benzenesulfonamide 2,2,2-trifluoroacetate] | – | 12.2 | 7.52 | > 30 |
| O=S(=O)(Nc1nccs1)c1ccc(OC2CCN(C3CCCCC3)CC2)c(Cl)c1 [Example 7, 3-chloro-4-((1-cyclohexylpiperidin-4-yl)oxy)-N-(thiazol-2-yl)benzenesulfonamide 2,2,2-trifluoroacetate] | – | > 30 | 27.3 | > 30 |
| O=S(=O)(Nc1nccs1)c1ccc(OC2CCN(Cc3ccccc3C(F)(F)F)CC2)c(Cl)c1 [Example 12, 3-chloro-N-(thiazol-2-yl)-4-((1-(2-(trifluoromethyl)benzyl)piperidin-4-yl)oxy)benzenesulfonamide] | – | 13.3 | 13.3 | 6.35 |
| O=S(=O)(Nc1nccs1)c1ccc(OC2CCN(Cc3ccccc3Cl)CC2)c(Cl)c1 [Example 13, 3-chloro-4-((1-(2-chlorobenzyl)piperidin-4-yl)oxy)-N-(thiazol-2-yl)benzenesulfonamide] | – | 6.83 | 1.7 | 5.09 |
| Cc1ccnc(CN2CCC(Oc3ccc(S(=O)(=O)Nc4nccs4)cc3Cl)CC2)c1 [Example 14, 3-chloro-4-((1-((4-methylpyridin-2-yl)methyl)piperidin-4-yl)oxy)-N-(thiazol-2-yl)benzenesulfonamide] | – | > 30 | 0.878 | 10.7 |
| O=S(=O)(Nc1nccs1)c1ccc(O[C@H]2C[C@H]3CC[C@@H](C2)N3Cc2ccccc2)c(Cl)c1 [Example 15, 4-(((1R,3r,5S)-8-benzyl-8-azabicyclo[3.2.1]octan-3-yl)oxy)-3-chloro-N-(thiazol-2-yl)benzenesulfonamide] | – | 9.23 | 2.57 | 23.9 |
| O=S(=O)(Nc1nccs1)c1cc(Cl)c(O[C@@H]2C[C@H]3CC[C@@H](C2)N3Cc2cccc(Cl)c2)cc1F [Example 18, 5-chloro-4-(((1R,3s,5S)-8-(3-chlorobenzyl)-8-azabicyclo[3.2.1]octan-3-yl)oxy)-2-fluoro-N-(thiazol-2-yl)benzenesulfonamide 2,2,2-trifluoroacetate] | – | > 30 | 1.06 | > 30 |
| CC1(Oc2ccc(S(=O)(=O)Nc3nccs3)cc2Cl)CCN(Cc2ccccc2)CC1 [Example 19, 4-((1-benzyl-4-methylpiperidin-4-yl)oxy)-3-chloro-N-(thiazol-2-yl)benzenesulfonamide] | – | 4.96 | 3.17 | 4.68 |
| CC1(Oc2ccc(S(=O)(=O)Nc3nccs3)cc2Cl)CCN(Cc2cccc(Cl)c2)CC1 [Example 20, 3-chloro-4-((1-(3-chlorobenzyl)-4-methylpiperidin-4-yl)oxy)-N-(thiazol-2-yl)benzenesulfonamide] | – | 5.93 | 5.62 | 6.1 |
| CC1(Oc2ccc(S(=O)(=O)Nc3nccs3)cc2Cl)CCN(Cc2cccc(C(F)F)c2)CC1 [Example 21, 3-chloro-4-((1-(3-(difluoromethyl)benzyl)-4-methylpiperidin-4-yl)oxy)-N-(thiazol-2-yl)benzenesulfonamide] | – | 3.15 | 3.18 | 4.69 |
| O=S(=O)(Nc1nccs1)c1ccc(OC2CCN(Cc3ccc(F)cc3)CC2)c(Cl)c1 [Example 22, 3-chloro-4-((1-(4-fluorobenzyl)piperidin-4-yl)oxy)-N-(thiazol-2-yl)benzenesulfonamide 2,2,2-trifluoroacetate] | – | 14.8 | 3.64 | 16.1 |
| CC(c1ccccc1)N1CCC(Oc2ccc(S(=O)(=O)Nc3nccs3)cc2Cl)CC1 (centres unmarked) [Example 52, 3-chloro-4-((1-(1-phenylethyl)piperidin-4-yl)oxy)-N-(thiazol-2-yl)benzenesulfonamide] | – | – | 0.305 | 14.4 |
| Cc1cc(S(=O)(=O)Nc2cscn2)c(F)cc1N(C)[C@H]1CCN(Cc2ccccc2O)C1 [Example 113, (S)-2-fluoro-4-((1-(2-hydroxybenzyl)-pyrrolidin-3-yl)(methyl)amino)-5-methyl-N-(thiazol-4-yl)benzenesulfonamide] | – | 17.9 | 0.258 | – |
| COc1cccc(CN2CC[C@H](N(C)c3cc(F)c(S(=O)(=O)Nc4cscn4)cc3Cl)C2)c1 [Example 219, (S)-5-chloro-2-fluoro-4-((1-(3-methoxybenzyl)pyrrolidin-3-yl)(methyl)amino)-N-(thiazol-4-yl)benzenesulfonamide] | – | 7.53 | 3.2 | – |
| O=S(=O)(Nc1cscn1)c1cc(Cl)c(OC2CCN(Cc3ccccc3)CC2)cc1F [Example 238, 4-((1-benzylpiperidin-4-yl)oxy)-5-chloro-2-fluoro-N-(thiazol-4-yl)benzenesulfonamide 2,2,2-trifluoroacetate] | – | 27.8 | 2.1 | – |
| O=S(=O)(Nc1cscn1)c1ccc(O[C@@H]2C[C@H]3CC[C@@H](C2)N3Cc2cccc(C(F)F)c2)c(Cl)c1 [Example 256, 3-chloro-4-(((1R,3s,5S)-8-(3-(difluoromethyl)benzyl)-8-azabicyclo[3.2.1]octan-3-yl)oxy)-N-(thiazol-4-yl)benzenesulfonamide] | – | – | – | 6.72 |
| Cc1cc(S(=O)(=O)Nc2cscn2)c(F)cc1N(C)[C@@H]1CCN(Cc2ccccc2)C1 [Example 272, (R)-4-((1-benzylpyrrolidin-3-yl)(methyl)amino)-2-fluoro-5-methyl-N-(thiazol-4-yl)benzenesulfonamide] | – | – | 3.77 | – |
| Cc1cc(S(=O)(=O)Nc2cscn2)ccc1N(C)[C@H]1CCN(Cc2ccccc2)C1 [Example 284, (S)-4-((1-benzylpyrrolidin-3-yl)(methyl)amino)-3-methyl-N-(thiazol-4-yl)benzenesulfonamide 2,2,2-trifluoroacetate] | – | 10.5 | 0.718 | – |
| C[C@H](c1ccccc1)N1CCC(Oc2ccc(S(=O)(=O)Nc3ccon3)cc2Cl)CC1 [Example 305, (R)-3-chloro-N-(isoxazol-3-yl)-4-((1-(1-phenylethyl)piperidin-4-yl)oxy)benzenesulfonamide formate] | – | – | – | > 30 |
| Cc1cc(S(=O)(=O)Nc2cscn2)c(F)cc1N(C)[C@H]1CCN(Cc2cccc(F)c2)C1 [compound 157, (S)-2-fluoro-4-((1-(3-fluorobenzyl)pyrrolidin-3-yl)(methyl)amino)-5-methyl-N-(thiazol-4-yl)benzenesulfonamide] | – | – | 0.211 | 18.6 |
